Assay results taken from patent publication US11478471B2, “Methods and compositions for treating diabetes, metabolic syndrome and other conditions” (priority 2005, dated 2022).
In brackets after ≈: the same amount, converted by molar mass. Entries after “also recorded” stand apart in the source; their conditions may differ. Where two headings read alike, the source gives them in different places.

Columns and labels:
Issatchenkia orientalis = assay: Antifungal MIC; format: cell-based; details: Pichia kudriavzevii
[1] = Toxicokinetics of racemic ketoconazole in another 28-day dog study (b); details: dogs; for Cmax / AUC(0-t) / concentration at 0 h / concentration at 1 h / concentration at 2 h / concentration at 4 h / concentration at 8 h / concentration at 12 h / Tmax: beagle, dog, plasma, po; for AUC(0-t): AUC(0-12), footnote: AUC data is for 0-24 h; for concentration at 0 h / concentration at 1 h / concentration at 2 h / concentration at 4 h / concentration at 8 h / concentration at 12 h: Drug concentration in plasma; for Tmax: Tmax Range
From the text: Two groups of three male and three female dogs per group were studied.
Toxicokinetic samples were collected on Day 1 and during Weeks 2 and 4. […] For the following Table: *Days of treatment.

[2] = read-out: Cmax of unmetabolized ketoconazole; humans, 400 mg dose; cited from earlier work
Candida parapsilosis = assay: Antifungal MIC; format: cell-based; details: Lodderomyces parapsilosis
Candida guilliermondii = assay: Antifungal MIC; format: cell-based; details: Meyerozyma guilliermondii, DSM11947; DSM strain 11947, 48 h
rat hepatocytes = details: cultured rat hepatocytes, four hours exposure; cited from earlier work
testosterone levels = assay: Testosterone levels in rats after oral dosing; format: in vivo, Sprague Dawley rats; details: for Testosterone levels (mean ± SEM): 4 h after gavage
From the text: There was a single control group (dosed with vehicle).
The means of the vehicle treated groups are used as the time zero control point.

Candida tropicalis = assay: Antifungal MIC; format: cell-based
[3] = female, 10 mg/kg, study b, powder, 10 mg/kg oral, day 1, F
[4] = female, 10 mg/kg, study b, powder, 10 mg/kg oral, day 28, F
[5] = female, 40 mg/kg, study b, powder, 40 mg/kg oral, day 1, F
[6] = female, 40 mg/kg, study b, powder, dose and days not printed in the row (40 mg/kg, day 28), F
[7] = female, 40 mg/kg, study b, powder, 40 mg/kg oral, day 28, F
[8] = male, 10 mg/kg, study b, powder, 10 mg/kg oral, day 1, M
[9] = male, 10 mg/kg, study b, powder, 10 mg/kg oral, day 28, M
[10] = male, 40 mg/kg, study b, powder, 40 mg/kg oral, day 1, M
[11] = male, 40 mg/kg, study b, powder, dose and days not printed in the row (40 mg/kg, day 28), M
[12] = male, 40 mg/kg, study b, powder, 40 mg/kg oral, day 28, M

CC(=O)N1CCN(c2ccc(OCC3COC(Cn4ccnc4)(c4ccc(Cl)cc4Cl)O3)cc2)CC1 (racemic) [Racemic ketoconazole, 1-acetyl-4-[4-[[2-(2,4-dichlorophenyl)-2-[(1H-imidazol-1-yl)-methyl]-1,3-dioxolan-4-yl]methoxy]phenyl]piperazine]
MIC (Issatchenkia orientalis; DSM11956, 48 h): 0.25 µg/mL (≈ 0.47 µM) | MIC (Issatchenkia orientalis; DSM11958, 48 h): 1 µg/mL (≈ 1.88 µM) | Cmax ([1]; both, 10 mg/kg, 10 mg/kg, day 28): 7520 to 9200 ng/mL | Cmax ([1]; both, 40 mg/kg, 40 mg/kg, day 28): 42800 to 46800 ng/mL | change of exposure (AUC, Cmax) with repeat dosing, day 28 vs day 1 ([1]; daily oral dosing for 28 days): AUC determined after a single dose was significantly reduced in comparison to the AUC determined after 28 daily doses; also recorded: significant increase between day 1 and day 28 | AUC(0-t) [1, 3]: 6730 ng·h/mL | AUC(0-t) [1, 4]: 33100 ng·h/mL | Cmax [1, 3]: 1580 ng/mL | Cmax [1, 4]: 7520 ng/mL | concentration at 0 h [1, 3]: < 250 ng/mL | concentration at 1 h [1, 3]: 1300 ng/mL | concentration at 2 h [1, 3]: 1230 ng/mL | concentration at 4 h [1, 3]: 590 ng/mL | concentration at 8 h [1, 3]: < 250 ng/mL | concentration at 12 h [1, 3]: < 250 ng/mL | concentration at 0 h [1, 4]: < 250 ng/mL | concentration at 1 h [1, 4]: 7280 ng/mL | concentration at 2 h [1, 4]: 7210 ng/mL | concentration at 4 h [1, 4]: 4390 ng/mL | concentration at 8 h [1, 4]: 850 ng/mL | concentration at 12 h [1, 4]: < 250 ng/mL | Tmax [1, 3]: 1 to 8 h | Tmax [1, 4]: 1 to 2 h | AUC(0-t) [1, 5]: 42900 ng·h/mL | AUC(0-t) [1, 6]: 639000 ng·h/mL | Cmax [1, 5]: 6230 ng/mL | Cmax [1, 6]: 42800 ng/mL | concentration at 0 h [1, 5]: < 250 ng/mL | concentration at 1 h [1, 5]: 5650 ng/mL | concentration at 2 h [1, 5]: 5760 ng/mL | concentration at 4 h [1, 5]: 3300 ng/mL | concentration at 8 h [1, 5]: 1840 ng/mL | concentration at 12 h [1, 5]: 1550 ng/mL | concentration at 0 h [1, 7]: 12800 ng/mL | concentration at 1 h [1, 7]: 12300 ng/mL | concentration at 2 h [1, 7]: 31600 ng/mL | concentration at 4 h [1, 7]: 38600 ng/mL | concentration at 8 h [1, 7]: 40400 ng/mL | concentration at 12 h [1, 7]: 29900 ng/mL | Tmax [1, 5]: 2 to 12 h | Tmax [1, 6]: 4 to 8 h | AUC(0-t) [1, 8]: 9010 ng·h/mL | AUC(0-t) [1, 9]: 44200 ng·h/mL | Cmax [1, 8]: 1430 ng/mL | Cmax [1, 9]: 9200 ng/mL | concentration at 0 h [1, 8]: < 250 ng/mL | concentration at 1 h [1, 8]: 380 ng/mL | concentration at 2 h [1, 8]: 620 ng/mL | concentration at 4 h [1, 8]: 1180 ng/mL | concentration at 8 h [1, 8]: 330 ng/mL | concentration at 12 h [1, 8]: < 250 ng/mL | concentration at 0 h [1, 9]: < 250 ng/mL | concentration at 1 h [1, 9]: 7530 ng/mL | concentration at 2 h [1, 9]: 8630 ng/mL | concentration at 4 h [1, 9]: 6200 ng/mL | concentration at 8 h [1, 9]: 1440 ng/mL | concentration at 12 h [1, 9]: 430 ng/mL | Tmax [1, 8]: 2 to 4 h | Tmax [1, 9]: 1 to 2 h | AUC(0-t) [1, 10]: 180000 ng·h/mL | AUC(0-t) [1, 11]: 542000 ng·h/mL | Cmax [1, 10]: 23300 ng/mL | Cmax [1, 11]: 46800 ng/mL | concentration at 0 h [1, 10]: < 250 ng/mL | concentration at 1 h [1, 10]: 10300 ng/mL | concentration at 2 h [1, 10]: 14600 ng/mL | concentration at 4 h [1, 10]: 23100 ng/mL | concentration at 8 h [1, 10]: 10100 ng/mL | concentration at 12 h [1, 10]: 6700 ng/mL | concentration at 0 h [1, 12]: 3970 ng/mL | concentration at 1 h [1, 12]: 11900 ng/mL | concentration at 2 h [1, 12]: 24600 ng/mL | concentration at 4 h [1, 12]: 32700 ng/mL | concentration at 8 h [1, 12]: 46800 ng/mL | concentration at 12 h [1, 12]: 28300 ng/mL | Tmax [1, 10]: 2 to 4 h | Tmax [1, 11]: 8 h | Cmax [2]: 12.3 µM | MIC (Candida parapsilosis; DSM05784, 48 h): 0.03 µg/mL (≈ 0.0565 µM) | MIC (Candida parapsilosis; DSM11224, 48 h): < 0.015 µg/mL | MIC (Candida guilliermondii): 0.125 µg/mL (≈ 0.235 µM) | concentrations with no detectable effect on LDH release (rat hepatocytes): below 75 microM | Testosterone levels (mean ± SEM) (testosterone levels; single oral 50 mg/kg): 2.7 ± 0.6 nmol/L | Testosterone levels (mean ± SEM) (testosterone levels; single oral 100 mg/kg): 1.7 ± 0.5 nmol/L | Testosterone levels (mean ± SEM), time course (testosterone levels; single oral 200 mg/kg, 4 h): 1.6 ± 0.6 nmol/L | Testosterone levels (mean ± SEM) (testosterone levels; single oral 200 mg/kg): 0.4 ± 0.2 nmol/L | Testosterone levels (mean ± SEM), time course (testosterone levels; single oral 200 mg/kg, 8 h): 8.0 ± 1.0 nmol/L | Testosterone levels (mean ± SEM), time course (testosterone levels; single oral 200 mg/kg, 12 h): 4.6 ± 0.6 nmol/L | Testosterone levels (mean ± SEM), time course (testosterone levels; single oral 200 mg/kg, 16 h): 3.8 ± 0.5 nmol/L | Testosterone levels (mean ± SEM), time course (testosterone levels; single oral 200 mg/kg, 20 h): 5.6 ± 0.8 nmol/L | Testosterone levels (mean ± SEM), time course (testosterone levels; single oral 200 mg/kg, 24 h): 5.9 ± 0.5 nmol/L | Testosterone levels (mean ± SEM) (testosterone levels; single oral 400 mg/kg): 0.4 ± 0.2 nmol/L | Testosterone levels (mean ± SEM) (testosterone levels; single oral 600 mg/kg): 0.8 ± 0.1 nmol/L | MIC (Candida tropicalis; DSM11951, 48 h): 0.125 µg/mL (≈ 0.235 µM) | MIC (Candida tropicalis; DSM11952, 48 h): 4 µg/mL (≈ 7.53 µM) | MIC (Candida tropicalis; DSM11953, 48 h): 0.06 µg/mL (≈ 0.113 µM)
